Test: Human microsomal stability assay
Assay type: in vitro ADME
Details: human liver microsomes 0.5 mg/mL, 37° C., pH 7.4, NADPH regenerating system, 0-30 minutes
Protocol: Human Microsomal Stability Assay
Human liver microsomes (Cat. NO.: 452117, Corning, USA) were preincubated with test compound for 10 minutes at 37° C. in 100 mM potassium phosphate buffer, pH 7.4. The reactions were initiated by adding NADPH regenerating system. The final incubation mixtures contained […] test compound, 0.5 mg/mL liver microsomal protein, 1 mM MgCl2, 1 mM NADP, 1 unit/mL isocitric dehydrogenase and 6 mM isocitric acid in 100 mM potassium phosphate buffer, pH 7.4. After incubation times of 0, 3, 6, 9, 15 and 30 minutes at 37° C., 300 μL of cold ACN (including internal standard) was added to 100 μL incubation mixture to terminate the reaction. Following precipitation and centrifugation, 100 μL supernatant will be taken out and added 300 uL water. The amount of compound remaining in the samples was determined by LC-MS/MS. Controls of no NADPH regenerating system at zero and 30 minutes were also prepared and analyzed. The results were categorized as: low (<7.0 mLJmin/kg), medium (7.0-16.2 mL/min/kg) and high (16.2-23.2 mLJmin/kg).

`C[C@@H]1CN(c2ccc(C#N)c3ncccc23)C[C@@H]2c3ccc(OC4CNC4)cc3CN12` [Example 27, 5-[(4R,10bS)-8-(azetidin-3-yloxy)-4-methyl-3,4,6,10b-tetrahydro-1H-pyrazino[2,1-a]isoindol-2-yl]quinoline-8-carbonitrile] and `C[C@@H]1CN(c2ccc(C#N)c3ncccc23)C[C@@H]2c3ccc(C(=O)N4CCNCC4)cc3CN12` [Example 86, 5-[(4R,10bS)-4-methyl-8-(piperazine-1-carbonyl)-3,4,6,10b-tetrahydro-1H-pyrazino[2,1-a]isoindol-2-yl]quinoline-8-carbonitrile] are the same in “CL (h)” value: 7.7 mL/min/kg for the first, 7.7 mL/min/kg for the second.

`C[C@@H]1CN(c2ccc(C#N)c3ncccc23)C[C@@H]2c3ccc(C(=O)N4C[C@@H]5C[C@H]4CN5)cc3CN12` [Example 87, 5-[(4R,10bS)-8-[(1S,4S)-2,5-diazabicyclo[2.2.1]heptane-2-carbonyl]-4-methyl-3,4,6,10b-tetrahydro-1H-pyrazino[2,1-a]isoindol-2-yl]quinoline-8-carbonitrile] and `C[C@@H]1CN(c2ccc(C#N)n3nccc23)C[C@@H]2c3ccc(N4CCC(C)(N)CC4)cc3CN12` [Example 100, 4-[(4R,10bS)-8-(4-amino-4-methyl-1-piperidyl)-4-methyl-3,4,6,10b-tetrahydro-1H-pyrazino[2,1-a]isoindol-2-yl]pyrazolo[1,5-a]pyridine-7-carbonitrile] are the same in “CL (h)” value: 8.0 mL/min/kg for the first, 8.0 mL/min/kg for the second.
